In patent US11389453B2, “Compositions and methods for treating chemosensory dysfunction” (Cyrano Therapeutics, Inc., priority 2005, dated 2022):
“Also recorded” adds a separate entry of the source. Marks after values point to notes of the source that are not given here.

What was measured:
Type in all cases: in vivo, human
TRAIL = TRAIL in nasal mucus of patients with hyposmia before and after treatment with theophylline; settings: for TRAIL: nasal mucus, patients with hyposmia (5)
Nitric Oxide (NO) = assay: NO in nasal mucus of patients with hyposmia before and after theophylline treatment; settings: for NO: nasal mucus, patients (12)
Excerpt: Table 33 in the examples illustrates NO in nasal mucus in patients treated with theophylline in various doses before and after drug treatment. NO levels in nasal mucus changed following the treatment of patients with smell loss. […] Its continual measurement during treatment of the disorders helps in monitoring efficacy of therapy. The detection of NO in nasal mucus provides a non invasive method of diagnosing various diseases related to human physiology and pathology. The methods of the present invention include treatment of diseases by modulating the concentrations of NO by use of drugs or agents. The method of treatment is preferably by nasal administration.
Table 33 illustrates NO levels in nasal mucus in patients treated with Theophylline in various doses before and after drug treatment. NO levels in nasal mucus changed following the treatment of patients with smell loss. […] Its continual measurement during treatment of these disorders helps in monitoring efficacy of therapy. The detection of NO in nasal mucus provides a non invasive method of diagnosing various diseases related to human physiology and pathology.

TNFα = TNFα in nasal mucus of patients with hyposmia treated with theophylline; settings: for TNF∝: nasal mucus, patients with hyposmia (24)
Excerpt: (§1) Table 35 illustrates detection and measurement of TNFα, and soluble TNF receptors 1 and 2, moieties in the nasal mucus. TNFα, and soluble TNF receptors 1 and 2 increase in systems undergoing excessive apoptosis.
(§2) These studies were extended to reveal levels of TNFα in nasal mucus of patients with graded loss of smell following treatment with theophylline (Table 36). Smell loss was graded such that loss was greatest in Type I hyposmia, less in Type II and still less in Type III (I>II>III). […] Following treatment which was effective in restoring smell function toward normal, levels of TNFα decreased in each patient group consistent with each increased dose of theophylline which generated a dose dependent increase in smell function—as theophylline dose increased, smell function increased and TNFα levels decreased. In Type I hyposmia TNFα decreased 40% after treatment with 400 mg theophylline and 57% after treatment 600 mg. In Type II hyposmia TNFα decreased 11% after treatment with 600 mg theophylline.

TNFR 1 = TNFR 1 in nasal mucus of patients with hyposmia treated with theophylline; settings: for TNFR1: nasal mucus, patients with hyposmia (19)
Excerpt: as §1
With increased smell loss pre treatment TNFR 1 levels were increased in nasal mucus in patients with Type I hyposmia (whose smell loss was increased over that of patients with Type II hyposmia). […] The greater was the smell loss, the higher was the level of TNFR 1.

TNFR 2 = TNFR 2 in nasal mucus of patients with hyposmia treated with theophylline; settings: for TNFR2: nasal mucus, patients with hyposmia (18)
Procedure: as §1
With a dose dependent increase of theophylline treatment levels of TNFR 2 in nasal mucus decreased consistent with a dose dependent increase in smell function. Levels of TNFR 2 in patients with Type I and Type II hyposmia decreased almost 50% on 600 mg theophylline consistent with their greatest return of smell function. At this highest level of theophylline levels of TNFR 2 were decreased in relationship to the decrease in smell function-TNFR 2, Type I>Type II>Type III; smell loss, Type I>Type II>Type III.

patients with hyposmia = assay: Smell function (olfactory acuity) in patients with hyposmia treated with theophylline
Excerpt: as §2

[1] = patients with hyposmia, stepwise increase in theophylline dose
[2] = hyposmia Type I (7), theophylline 200 mg orally daily
[3] = hyposmia Type I (7), theophylline 600 mg orally daily
[4] = hyposmia Type II (10), theophylline 200 mg orally daily
[5] = hyposmia Type II (10), theophylline 400 mg orally daily
[6] = hyposmia Type II (10), theophylline 600 mg orally daily
[7] = hyposmia Type III (2), theophylline 600 mg orally daily

SMILES: Cn1c(=O)c2[nH]cnc2n(C)c1=O [theophylline]
- TRAIL (TRAIL; theophylline 200 mg): 855 µg/mL
- TRAIL (TRAIL; theophylline 400 mg): 791 µg/mL
- TRAIL (TRAIL; theophylline 600 mg): 247 µg/mL
- TRAIL in nasal mucus, change after treatment (TRAIL; patients with hyposmia, before vs after theophylline at various doses): dose-dependent decrease
- NO (Nitric Oxide (NO); Theophylline 200 mg): 0.25 ± 0.01 µg/mL
- NO (Nitric Oxide (NO); Theophylline 400 mg): 0.40 ± 0.06 µg/mL
- NO (Nitric Oxide (NO); Theophylline 600 mg): 0.59 ± 0.16 µg/mL
- NO in nasal mucus, change after treatment (Nitric Oxide (NO); patients with hyposmia, theophylline in graded doses): increases in nasal mucus NO
- TNFα decrease in nasal mucus (TNFα; Type I hyposmia, 400 mg theophylline): 40%
- TNFα decrease in nasal mucus (TNFα; Type I hyposmia, 600 mg theophylline): 57%
- TNFα decrease in nasal mucus (TNFα; Type II hyposmia, 600 mg theophylline): 11%
- TNF∝ in nasal mucus (TNFα; hyposmia Type I (8), theophylline 400 mg orally daily): 15.6
- TNF∝ in nasal mucus (TNFα; hyposmia Type I (8), theophylline 600 mg orally daily): 11.2 ± 4.4^
- TNF∝ in nasal mucus (TNFα; hyposmia Type II (13), theophylline 200 mg orally daily): 14.9 ± 2.5
- TNF∝ in nasal mucus (TNFα; hyposmia Type II (13), theophylline 400 mg orally daily): 11.5 ± 3.2
- TNF∝ in nasal mucus (TNFα; hyposmia Type II (13), theophylline 600 mg orally daily): 4.3 ± 0.8^a
- TNF∝ in nasal mucus (TNFα; hyposmia Type III (3), theophylline 600 mg orally daily): 1.2 ± 0.7^bc
- TNF∝ (TNFα; Theophylline treatment 200): 20.0 ± 2.8 µg/mL
- TNF∝ (TNFα; Theophylline treatment 400): 12.1 ± 2.1 µg/mL
- TNF∝ (TNFα; Theophylline treatment 600): 7.4 ± 1.8 µg/mL
- TNFα in nasal mucus, change after treatment (TNFα; [1]): significant dose-response decrease
- TNFR 1 in nasal mucus (TNFR 1; [2]): 6,521 ± 1,304^c
- TNFR 1 in nasal mucus (TNFR 1; hyposmia Type I (7), theophylline 400 mg orally daily): 1,498
- TNFR 1 in nasal mucus (TNFR 1; [3]): 1,832 ± 704^a
- TNFR 1 in nasal mucus (TNFR 1; [4]): 1,462 ± 371 ^
- TNFR 1 in nasal mucus (TNFR 1; [5]): 1,087 ± 335
- TNFR 1 in nasal mucus (TNFR 1; [6]): 862 ± 335
- TNFR 1 in nasal mucus (TNFR 1; [7]): 585 ± 335
- TNFR1 (TNFR 1; Theophylline treatment 200): 3,148 ± 663
- TNFR1 (TNFR 1; Theophylline treatment 400): 1,146 ± 220^b
- TNFR1 (TNFR 1; Theophylline treatment 600): 1,220 ± 286^ab
- TNFR 1 in nasal mucus, change after treatment (TNFR 1; [1]): significant dose-response decrease; also recorded: TNFR 1 levels decreased in Type I
- TNFR 2 decrease in nasal mucus (TNFR 2; Type I and Type II hyposmia, 600 mg theophylline): ~50%
- TNFR2 in nasal mucus (TNFR 2; [2]): 3,100 ± 1,184
- TNFR2 in nasal mucus (TNFR 2; [3]): 1,491 ± 1,102
- TNFR2 in nasal mucus (TNFR 2; [4]): 1,378 ± 480^
- TNFR2 in nasal mucus (TNFR 2; [5]): 1,014 ± 272
- TNFR2 in nasal mucus (TNFR 2; [6]): 553 ± 158
- TNFR2 in nasal mucus (TNFR 2; [7]): 436 ± 443
- TNFR2 (TNFR 2; Theophylline treatment 200): 1,952 ± 339
- TNFR2 (TNFR 2; Theophylline treatment 400): 949 ± 180^c
- TNFR2 (TNFR 2; Theophylline treatment 600): 916 ± 344
- TNFR 2 in nasal mucus, change after treatment (TNFR 2; [1]): significant dose-response decrease; also recorded: decreased
- smell function (patients with hyposmia; 600 mg theophylline): restored smell function to or toward normal
- smell function (patients with hyposmia; theophylline at various (graded) doses): returned smell function to normal in a dose-dependent manner; also recorded: graded increases in smell function; also recorded: stepwise improvement in olfactory acuity
